Laboratory results from ChEMBL document CHEMBL6071196, “Semisynthetic Tetramate-Containing Fungal Metabolites with Activity against Trichomonas vaginalis and Mycoplasma genitalium” (ACS Med Chem Lett, 2024).
Converted amounts (≈) assume the structure as drawn.

Legend:
Trichomonas vaginalis = experiment: Anti-trichomonal activity against Trichomonas vaginalis assessed as inhibition of parasite growth incubated for 18 hrs; type: functional, organism-based
Mycoplasma genitalium = experiment: Antibacterial activity against Mycoplasma genitalium G37C assessed as bacterial growth inhibition incubated for 7 days by phenol red reagent based microbroth dilution assay; type: functional; conditions: Mycoplasmoides genitalium, 168 h, time 7 day
[1] = Selectivity index, ratio of IC50 for cytotoxicity against african green monkey Vero cells incubated for 48 hrs by celltiter blue assay to MIC for antibacterial activity against Mycoplasma genitalium G37C assessed as bacterial growth inhibition incubated for 7 days by phenol red reagent based microbroth dilution assay; type: toxicity, cell-based; conditions: read-out: Selectivity Index

CC1=C[C@H]2C[C@@H](C)CC[C@@H]2[C@@](C)(/C(O)=C2\C(=O)[C@@H](COCc3cn(Cc4ccc(C(=O)O)cc4)nn3)N(C)C2=O)[C@H]1/C=C/C=C/C[C@@H](C)O
EC50 (Trichomonas vaginalis): > 10 µM
MIC90 (Mycoplasma genitalium): 37 µM (≈ 24.9 µg/mL)

C/C=C/C=C/[C@H]1C(C)=C[C@H]2C[C@@H](C)CC[C@@H]2[C@@]1(C)/C(O)=C1\C(=O)[C@H](CO)N(C)C1=O
EC50 (Trichomonas vaginalis): > 10 µM
MIC90 (Mycoplasma genitalium): 25 µM (≈ 10.3 µg/mL)

CC1=C[C@H]2C[C@@H](C)CC[C@@H]2[C@@](C)(/C(O)=C2\C(=O)[C@H](COCc3cn(Cc4ccc(C(=O)O)cc4)nn3)N(C)C2=O)[C@H]1/C=C/C=C/C[C@@H](C)O
EC50 (Trichomonas vaginalis): > 10 µM
MIC90 (Mycoplasma genitalium): > 37 µM

C/C=C/C=C/[C@H]1C(C)=C[C@H]2C[C@@H](C)CC[C@@H]2[C@@]1(C)/C(O)=C1\C(=O)[C@H](COCc2cn(CC3CCCCO3)nn2)N(C)C1=O (some centres not stated)
EC50 (Trichomonas vaginalis): > 10 µM
MIC90 (Mycoplasma genitalium): 5.2 µM (≈ 3.08 µg/mL)
selectivity ratio at 48 h [1]: 4.4

C/C=C/C=C/[C@H]1C(C)=C[C@H]2C[C@@H](C)CC[C@@H]2[C@@]1(C)/C(O)=C1\C(=O)[C@@H](COCc2cn(CCc3ccc(O)cc3)nn2)N(C)C1=O
EC50 (Trichomonas vaginalis): > 10 µM
MIC90 (Mycoplasma genitalium): 5 µM (≈ 3.07 µg/mL)
selectivity ratio at 48 h [1]: 6.1

CC1=C[C@H]2C[C@@H](C)CC[C@@H]2[C@@](C)(/C(O)=C2\C(=O)[C@H](COCc3cn(CCc4ccc(O)cc4)nn3)N(C)C2=O)[C@H]1/C=C/C=C/C[C@@H](C)O
EC50 (Trichomonas vaginalis): > 10 µM
MIC90 (Mycoplasma genitalium): 9.8 µM (≈ 6.46 µg/mL)
selectivity ratio at 48 h [1]: 12.1

C/C=C/C=C/[C@H]1C(C)=C[C@H]2C[C@@H](C)CC[C@@H]2[C@@]1(C)/C(O)=C1\C(=O)[C@@H](COCc2cn(CCCO)nn2)N(C)C1=O
EC50 (Trichomonas vaginalis): > 10 µM
MIC90 (Mycoplasma genitalium): 22.6 µM (≈ 12.5 µg/mL)

C/C=C/C=C/[C@H]1C(C)=C[C@H]2C[C@@H](C)CC[C@@H]2[C@@]1(C)/C(O)=C1\C(=O)[C@@H](COCc2cn(Cc3c[nH]c4ccccc34)nn2)N(C)C1=O
EC50 (Trichomonas vaginalis): > 10 µM
MIC90 (Mycoplasma genitalium): 4.9 µM (≈ 3.06 µg/mL)
selectivity ratio at 48 h [1]: 17.9

C/C=C/C=C/[C@H]1C(C)=C[C@H]2C[C@@H](C)CC[C@@H]2[C@@]1(C)/C(O)=C1\C(=O)[C@@H](COCc2cn(Cc3cc(C)cc(C)c3)nn2)N(C)C1=O
EC50 (Trichomonas vaginalis): > 10 µM
MIC90 (Mycoplasma genitalium): 20.4 µM (≈ 12.5 µg/mL)

C/C=C/C=C/[C@H]1C(C)=C[C@H]2C[C@@H](C)CC[C@@H]2[C@@]1(C)[C@@H](O)[C@H]1C(=O)N(C)[C@H](CO)[C@H]1O
EC50 (Trichomonas vaginalis): > 10 µM
MIC90 (Mycoplasma genitalium): 30.1 µM (≈ 12.6 µg/mL)

CC1=C[C@H]2C[C@@H](C)CC[C@@H]2[C@@](C)(/C(O)=C2\C(=O)[C@H](CO)N(C)C2=O)[C@H]1/C=C/C=C/C[C@@H](C)O
EC50 (Trichomonas vaginalis): > 10 µM
MIC90 (Mycoplasma genitalium): 6.8 µM (≈ 3.11 µg/mL)

CC1=C[C@H]2C[C@@H](C)CC[C@@H]2[C@@](C)(/C(O)=C2\C(=O)[C@@H](COCc3cn(CCc4ccc(O)cc4)nn3)N(C)C2=O)[C@H]1/C=C/C=C/C[C@@H](C)O
EC50 (Trichomonas vaginalis): 5.4 µM
MIC90 (Mycoplasma genitalium): 38.8 µM (≈ 25.6 µg/mL)

C/C=C/C=C/[C@H]1C(C)=C[C@H]2C[C@@H](C)CC[C@@H]2[C@@]1(C)/C(O)=C1\C(=O)[C@@H](COCc2cn(CCO)nn2)N(C)C1=O
EC50 (Trichomonas vaginalis): > 10 µM
MIC90 (Mycoplasma genitalium): 23.2 µM (≈ 12.5 µg/mL)

C/C=C/C=C/[C@H]1C(C)=C[C@H]2C[C@@H](C)CC[C@@H]2[C@@]1(C)C(=O)[C@H]1C(=O)N(C)[C@H](CO)[C@H]1O
EC50 (Trichomonas vaginalis): > 10 µM
MIC90 (Mycoplasma genitalium): 7.5 µM (≈ 3.12 µg/mL)
selectivity ratio at 48 h [1]: 2.8

C/C=C/C=C/[C@H]1C(C)=C[C@H]2C[C@@H](C)CC[C@@H]2[C@@]1(C)/C(O)=C1\C(=O)[C@H](COCc2cn(CCCO)nn2)N(C)C1=O
EC50 (Trichomonas vaginalis): > 10 µM
MIC90 (Mycoplasma genitalium): 22.6 µM (≈ 12.5 µg/mL)

CC1=C[C@H]2C[C@@H](C)CC[C@@H]2[C@@](C)(/C(O)=C2\C(=O)[C@@H](COCc3cn(CC4CCCCO4)nn3)N(C)C2=O)[C@H]1/C=C/C=C/C[C@@H](C)O (some centres not stated)
EC50 (Trichomonas vaginalis): > 10 µM
MIC90 (Mycoplasma genitalium): 19.6 µM (≈ 12.5 µg/mL)

C/C=C/C=C/[C@H]1C(C)=C[C@H]2C[C@@H](C)CC[C@@H]2[C@@]1(C)/C(O)=C1\C(=O)[C@@H](COCc2cn(CC3CCCC3)nn2)N(C)C1=O
EC50 (Trichomonas vaginalis): > 10 µM
MIC90 (Mycoplasma genitalium): 10.9 µM (≈ 6.29 µg/mL)

C/C=C/C=C/[C@H]1C(C)=C[C@H]2C[C@@H](C)CC[C@@H]2[C@@]1(C)/C(O)=C1\C(=O)[C@H](COCc2cn(Cc3c[nH]c4ccccc34)nn2)N(C)C1=O
EC50 (Trichomonas vaginalis): > 10 µM
MIC90 (Mycoplasma genitalium): 9.9 µM (≈ 6.18 µg/mL)
selectivity ratio at 48 h [1]: 2.5

C/C=C/C=C/[C@H]1C(C)=C[C@H]2C[C@@H](C)CC[C@@H]2[C@@]1(C)/C(O)=C1\C(=O)[C@H](COCc2cn(CCCCC)nn2)N(C)C1=O
EC50 (Trichomonas vaginalis): > 10 µM
MIC90 (Mycoplasma genitalium): 22.1 µM (≈ 12.5 µg/mL)

C/C=C/C=C/[C@H]1C(C)=C[C@H]2C[C@@H](C)CC[C@@H]2[C@@]1(C)/C(O)=C1\C(=O)[C@@H](COCc2cn(CC3CCCO3)nn2)N(C)C1=O (some centres not stated)
EC50 (Trichomonas vaginalis): 5.4 µM
MIC90 (Mycoplasma genitalium): 12.5 µM (≈ 7.23 µg/mL)

CC1=C[C@H]2C[C@@H](C)CC[C@@H]2[C@@](C)(/C(O)=C2\C(=O)[C@@H](CO)N(C)C2=O)[C@H]1/C=C/[C@H](O)[C@H](C)O
EC50 (Trichomonas vaginalis): > 10 µM
MIC90 (Mycoplasma genitalium): > 50 µM

C/C=C/C=C/[C@H]1C(C)=C[C@H]2C[C@@H](C)CC[C@@H]2[C@@]1(C)/C(O)=C1\C(=O)[C@H](COCc2cn(CCCCO)nn2)N(C)C1=O
EC50 (Trichomonas vaginalis): > 10 µM
MIC90 (Mycoplasma genitalium): 22.1 µM (≈ 12.5 µg/mL)

C/C=C/C=C/[C@H]1C(C)=C[C@H]2C[C@@H](C)CC[C@@H]2[C@@]1(C)/C(O)=C1\C(=O)[C@H](COCc2cn(Cc3cc(C)cc(C)c3)nn2)N(C)C1=O
EC50 (Trichomonas vaginalis): > 10 µM
MIC90 (Mycoplasma genitalium): 20.4 µM (≈ 12.5 µg/mL)

C/C=C/C=C/[C@H]1C(C)=C[C@H]2C[C@@H](C)CC[C@@H]2[C@@]1(C)/C(O)=C1\C(=O)[C@H](COCc2cn(Cc3ccc(C(=O)O)cc3)nn2)N(C)C1=O
EC50 (Trichomonas vaginalis): 7.5 µM
MIC90 (Mycoplasma genitalium): > 25 µM

C/C=C/C=C/[C@H]1C(C)=C[C@H]2C[C@@H](C)CC[C@@H]2[C@@]1(C)/C(O)=C1/C(=O)N[C@@H](CO)C1=O
EC50 (Trichomonas vaginalis): > 10 µM
MIC90 (Mycoplasma genitalium): 62.6 µM (≈ 25 µg/mL)

CC1=C[C@H]2C[C@@H](C)CC[C@@H]2[C@@](C)(/C(O)=C2\C(=O)[C@@H](CO)N(C)C2=O)[C@H]1/C=C/[C@@H](O)[C@@H](C)O
EC50 (Trichomonas vaginalis): > 10 µM
MIC90 (Mycoplasma genitalium): 12.5 µM (≈ 5.59 µg/mL)

CC1=C[C@H]2C[C@@H](C)CC[C@@H]2[C@@](C)(/C(O)=C2\C(=O)[C@H](COCc3cn(CCO)nn3)N(C)C2=O)[C@H]1/C=C/C=C/C[C@@H](C)O
EC50 (Trichomonas vaginalis): > 10 µM
MIC90 (Mycoplasma genitalium): > 40 µM

C/C=C/C=C/[C@H]1C(C)=C[C@H]2C[C@@H](C)CC[C@@H]2[C@@]1(C)/C(O)=C1\C(=O)[C@@H](COCc2ccccc2)N(C)C1=O
EC50 (Trichomonas vaginalis): > 10 µM
MIC90 (Mycoplasma genitalium): 24.8 µM (≈ 12.5 µg/mL)

C/C=C/C=C/[C@H]1C(C)=C[C@H]2C[C@@H](C)CC[C@@H]2[C@@]1(C)/C(O)=C1\C(=O)[C@@H](COC(C)=O)N(C)C1=O
EC50 (Trichomonas vaginalis): > 10 µM
MIC90 (Mycoplasma genitalium): 12.5 µM (≈ 5.69 µg/mL)

C/C=C/C=C/[C@H]1C(C)=C[C@H]2C[C@@H](C)CC[C@@H]2[C@@]1(C)/C(O)=C1\C(=O)[C@H](COCc2cn(CC3CCCO3)nn2)N(C)C1=O (some centres not stated)
EC50 (Trichomonas vaginalis): > 10 µM
MIC90 (Mycoplasma genitalium): 12.5 µM (≈ 7.23 µg/mL)

C#CCOC[C@@H]1C(=O)/C(=C(/O)[C@@]2(C)[C@@H](/C=C/C=C/C)C(C)=C[C@H]3C[C@@H](C)CC[C@@H]32)C(=O)N1C
EC50 (Trichomonas vaginalis): > 10 µM
MIC90 (Mycoplasma genitalium): 14 µM (≈ 6.32 µg/mL)

C/C=C/C=C/[C@H]1C(C)=C[C@H]2C[C@@H](C)CC[C@@H]2[C@@]1(C)/C(O)=C1\C(=O)[C@@H](COCc2cn(CCCCC)nn2)N(C)C1=O
EC50 (Trichomonas vaginalis): > 10 µM
MIC90 (Mycoplasma genitalium): 22.1 µM (≈ 12.5 µg/mL)

C/C=C/C=C/[C@H]1C(C)=C[C@H]2C[C@@H](C)CC[C@@H]2[C@@]1(C)/C(O)=C1\C(=O)[C@@H](COCc2cn(CCCCO)nn2)N(C)C1=O
EC50 (Trichomonas vaginalis): > 10 µM
MIC90 (Mycoplasma genitalium): 11.1 µM (≈ 6.29 µg/mL)
